# Entries after “also recorded” stand apart in the source; their conditions may differ. Like-named read-outs stand apart in the source and are kept apart here.
# Key:
# hNR2B [1] = target: T1, hNR2B (Homo sapiens, UniProt Q05586+Q13224); assay: Oocyte 2EVC NR2B PAM activity; assay type: cell-based
# T1 construct: expressed in transfected cells
# Excerpt: (§1) EC50 refers to the concentration of a compound that gives half-maximal response.
# [2] = Rat liver microsome stability; assay type: in vitro ADME; conditions: for half-life: rat, liver microsomes, read-out: Rat liver microsome (RLM) stability t1/2
# Excerpt: (§2) The liver is the most important site of drug metabolism in the body. Approximately 60% of marketed compounds are cleared by hepatic CYP-mediated metabolism (McGinnity, D. F.; Soars, M. G.; Urbanowicz, R. A. and Riley, R. J.; Drug Metab. Disp. 32, 1247, (2004)). Liver microsomes are subcellular fractions which contain membrane bound drug metabolizing enzymes. Microsomes can be used to determine the in vitro intrinsic clearance of a compound. The use of species-specific microsomes can be used to enable an understanding of interspecies differences.
# [3] = Rat IV pharmacokinetic study, in vivo clearance
# Excerpt: Rat microsomal stability data is provided as well. These improvements in in vitro and in vivo clearance are advantageous because reduced clearance, in one aspect, is anticipated to provide enhanced in vivo performance in humans.
# [4] = Aqueous solubility, shake-flask method; assay type: physicochemical; conditions: phosphate buffer saline, pH 7.4, shake-flask, HPLC-UV; for solubility: pH 7.4, aqueous buffer, kinetic from dmso stock
# Experimental: The aqueous solubility of the test compound was determined in phosphate buffer saline, pH 7.4, measured by shake-flask method. In this assay, DMSO stock solution of test compound was added to buffer followed by equilibration (shaking), filtration, and determination of soluble amount by HPLC-UV. […] Other imidazopyrazinone comparators from WO 2017/100591 are provided for reference. All comparator analogs are active and potency data is available in WO 2017/100591. This improvement is advantageous because improved aqueous solubility, in one aspect, is anticipated to provide enhanced in vivo performance in humans.
# NMDA receptor = conditions: cited from earlier work; for % response recovered with Ro 25-6981 and DCKA: Table 49 of WO 2017/100591; for Maximum measured potentiation (%) with Ro 25-6981 and DCKA: comparator examples from WO 2017/100591
# [5] = tested on: PCP-induced cognitive impairment; assay: Rat Novel Object Recognition (NOR) test, PCP-induced cognitive impairment; conditions: for reversal of PCP-induced deficit in novel object exploration time: oral
# Experimental: Rats were treated twice daily for 7 days with either saline vehicle (control group) or PCP (5 mg/kg, intraperitoneal). Following a 14-day washout period of no treatment, rats were tested in the NOR paradigm. Briefly, testing involves two sessions (T1 and T2), each lasting 3 minutes, 1 hour apart. […] In T1, rats are placed in a test arena with two identical objects and allowed to freely explore while their time spent exploring each object is recorded. In T2, rats are returned to the test arena where one of the objects remains the same and the other has been replaced with a novel object. The time spent exploring the novel object versus the time spent exploring the familiar object are recorded and compared to T1 object exploration times.
# hNR2C = target: T2, hNR2C (Homo sapiens, UniProt Q14957); assay: Oocyte 2EVC NR2C PAM activity; assay type: cell-based
# T2 construct: expressed in transfected cells
# Excerpt: as §1
# hNR2D [6] = target: T3, hNR2D (Homo sapiens, UniProt O15399); assay: Oocyte 2EVC NR2D PAM activity; assay type: cell-based
# T3 construct: expressed in transfected cells
# Excerpt: as §1
# hNR2D [7] = target: T4, hNR2D (Homo sapiens, UniProt O15399+Q05586); assay: Oocyte 2EVC NR2D PAM activity; assay type: cell-based; conditions: oocytes expressing hNR2D, 10 μM glutamate and 10 μM glycine
# T4 construct: expressed in transfected cells
# Excerpt: as §1
# hNR2B [8] = target: T5, hNR2B (Homo sapiens, UniProt Q13224); assay: Oocyte 2EVC NR2B PAM activity; assay type: cell-based
# T5 construct: expressed in transfected cells
# Excerpt: as §1
# [9] = tested on: MDR1-transfected MDCK cells; assay: MDCK permeability and efflux assay; assay type: in vitro ADME
# Excerpt: (§3) Monolayer systems consist of a tight cell layer grown on a porous support to separate two fluid compartments. They are widely regarded as the most sophisticated in vitro tools for medium to high throughput modeling of important pharmacokinetic barriers, such as intestinal epithelium, blood-brain barrier, etc. (J. Pharm Sci. 2012 April; 101(4): 1337-1354). Two systems that are applied widely in monolayer studies are the human colon carcinoma cell line Caco-2 and MDR1-transfected MDCKII and LLC-PK1 cells. In monolayer assays, the flux of a compound through the monolayer of cells is measured. The unidirectional flux of the compound of interest is determined by applying it to either the apical or to the basolateral side of the cell layer and monitoring the time resolved redistribution of it between the two compartments. The vectorial transport ratio (often referred to as Efflux Ratio) is determined by applying bidirectional measurements [apical-to-basolateral (A-B) and basolateral-to-apical (B-A)]. […] In the absence of such transport processes this ratio is approximately 1.
# MDR1 = assay: MDCK permeability and efflux assay; assay type: in vitro ADME; conditions: dog, MDR1-transfected MDCK cells
# Excerpt: as §3
# [10] = Human liver microsome stability; assay type: in vitro ADME
# Excerpt: as §2
# [11] = tested on: impairment of MMN by MK-801; assay: Mismatch negativity (MMN) efficacy model; conditions: rat
# Experimental: Rats implanted with frontal EEG electrodes were presented with different audio stimuli comprising an auditory oddball “flip-flop” protocol. Briefly, 1,000 standard tones of 6.0 kHz were delivered at 90% probability, and 100 deviant tones of 8.0 kHz were delivered at 10% probability in pseudo-random order (the flip sequence), and then this sequence was then repeated with the 8 kHz tone as the standard, and the 6 kHz tone as the deviant (the flop sequence). MMN is calculated as a difference potential obtained by subtracting the averaged 8 kHz standard tone response (flop) from the averaged 8 kHz deviance tone response (flip) at each 1 ms time point over the EEG recording epochs from 50 ms prior to 150 ms after the onset of these 50 ms auditory tones.
# Test sessions were comprised of three 20-minute flip-flop blocks.
# [12] = Table 4, read-out: Oocyte 2EVC NR2B PAM: EC50
# [13] = 10 μM glutamate and 10 μM glycine
# [14] = 100% potentiation = doubling of current induced by glutamate/glycine
# [15] = Table 1, read-out: Oocyte 2EVC NR2B PAM: EC50
# T2 sequence (Q14957 20-1233, other chains not shown): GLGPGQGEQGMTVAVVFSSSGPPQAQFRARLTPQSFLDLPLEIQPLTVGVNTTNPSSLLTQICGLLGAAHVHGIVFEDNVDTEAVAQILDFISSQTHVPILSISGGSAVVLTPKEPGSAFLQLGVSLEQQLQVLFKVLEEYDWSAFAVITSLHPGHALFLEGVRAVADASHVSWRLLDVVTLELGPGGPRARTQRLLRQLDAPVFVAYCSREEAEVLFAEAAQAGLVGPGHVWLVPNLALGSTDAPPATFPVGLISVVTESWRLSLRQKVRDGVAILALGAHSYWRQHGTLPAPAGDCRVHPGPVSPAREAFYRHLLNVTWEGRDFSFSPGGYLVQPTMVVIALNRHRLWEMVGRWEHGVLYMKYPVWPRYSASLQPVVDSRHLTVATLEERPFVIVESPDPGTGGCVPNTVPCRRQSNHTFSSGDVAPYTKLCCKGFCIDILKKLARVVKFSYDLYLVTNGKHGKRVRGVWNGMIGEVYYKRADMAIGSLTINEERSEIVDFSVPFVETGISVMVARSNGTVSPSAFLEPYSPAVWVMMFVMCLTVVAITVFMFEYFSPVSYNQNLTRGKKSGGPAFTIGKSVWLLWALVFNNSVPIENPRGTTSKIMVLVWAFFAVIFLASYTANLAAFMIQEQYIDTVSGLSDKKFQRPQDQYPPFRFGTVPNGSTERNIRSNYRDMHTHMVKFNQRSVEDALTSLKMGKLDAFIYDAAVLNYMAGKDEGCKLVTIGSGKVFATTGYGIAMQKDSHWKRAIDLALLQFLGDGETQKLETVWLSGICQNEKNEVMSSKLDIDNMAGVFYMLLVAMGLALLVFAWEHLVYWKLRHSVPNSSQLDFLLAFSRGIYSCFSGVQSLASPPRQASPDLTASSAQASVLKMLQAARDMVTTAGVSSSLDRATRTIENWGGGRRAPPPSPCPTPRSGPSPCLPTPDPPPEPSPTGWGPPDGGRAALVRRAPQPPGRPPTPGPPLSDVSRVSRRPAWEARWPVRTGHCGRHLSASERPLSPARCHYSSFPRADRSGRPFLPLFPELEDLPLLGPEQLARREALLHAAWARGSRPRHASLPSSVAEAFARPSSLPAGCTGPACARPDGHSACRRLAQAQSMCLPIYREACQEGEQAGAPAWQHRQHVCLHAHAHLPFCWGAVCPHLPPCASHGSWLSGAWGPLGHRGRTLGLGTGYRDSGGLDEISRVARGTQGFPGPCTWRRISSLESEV
# T1 sequence (Q13224 27-1484, other chains not shown): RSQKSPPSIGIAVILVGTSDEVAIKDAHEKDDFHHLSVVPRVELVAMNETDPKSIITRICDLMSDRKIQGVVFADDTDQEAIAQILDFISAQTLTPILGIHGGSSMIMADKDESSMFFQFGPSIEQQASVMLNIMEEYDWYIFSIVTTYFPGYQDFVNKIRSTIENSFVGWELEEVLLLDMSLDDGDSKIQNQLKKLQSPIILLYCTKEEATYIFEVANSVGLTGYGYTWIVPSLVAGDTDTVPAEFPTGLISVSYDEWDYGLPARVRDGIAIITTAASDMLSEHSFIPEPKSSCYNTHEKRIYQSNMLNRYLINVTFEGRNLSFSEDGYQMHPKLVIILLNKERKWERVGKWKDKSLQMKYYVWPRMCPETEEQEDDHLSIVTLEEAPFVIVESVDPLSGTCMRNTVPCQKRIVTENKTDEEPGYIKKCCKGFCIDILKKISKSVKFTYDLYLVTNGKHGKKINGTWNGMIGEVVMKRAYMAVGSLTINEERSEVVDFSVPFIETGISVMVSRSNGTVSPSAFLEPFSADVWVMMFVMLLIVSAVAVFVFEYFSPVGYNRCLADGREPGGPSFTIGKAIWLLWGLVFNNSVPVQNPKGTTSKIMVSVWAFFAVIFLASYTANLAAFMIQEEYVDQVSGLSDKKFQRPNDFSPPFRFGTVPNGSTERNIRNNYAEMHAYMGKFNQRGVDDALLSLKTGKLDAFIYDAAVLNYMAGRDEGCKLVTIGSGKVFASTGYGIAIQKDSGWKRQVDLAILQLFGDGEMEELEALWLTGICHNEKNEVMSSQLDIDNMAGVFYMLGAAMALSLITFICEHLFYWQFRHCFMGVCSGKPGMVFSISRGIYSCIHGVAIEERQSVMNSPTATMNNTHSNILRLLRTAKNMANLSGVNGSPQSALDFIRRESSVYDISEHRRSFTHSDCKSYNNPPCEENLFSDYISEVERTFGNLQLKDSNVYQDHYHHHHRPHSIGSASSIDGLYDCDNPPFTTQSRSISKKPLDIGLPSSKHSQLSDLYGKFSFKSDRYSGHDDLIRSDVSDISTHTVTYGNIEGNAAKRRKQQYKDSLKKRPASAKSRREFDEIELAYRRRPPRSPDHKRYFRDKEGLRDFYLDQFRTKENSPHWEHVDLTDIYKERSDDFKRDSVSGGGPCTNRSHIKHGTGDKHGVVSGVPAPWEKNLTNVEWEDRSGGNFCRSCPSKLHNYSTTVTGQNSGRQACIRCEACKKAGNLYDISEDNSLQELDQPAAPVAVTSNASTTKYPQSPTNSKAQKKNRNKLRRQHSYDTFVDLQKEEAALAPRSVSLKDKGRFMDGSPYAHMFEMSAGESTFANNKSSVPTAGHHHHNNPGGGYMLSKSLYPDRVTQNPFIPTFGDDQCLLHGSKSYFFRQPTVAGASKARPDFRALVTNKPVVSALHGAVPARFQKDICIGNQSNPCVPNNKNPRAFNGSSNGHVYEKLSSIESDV
# T5 sequence (Q13224 27-1484, other chains not shown): as above
structure (smiles),measurement,setting,value
CC1(F)CN(C(=O)Cn2ccc3scc(-c4ccc(Cl)c(Cl)c4)c3c2=O)C1 [Example 42],EC50,hNR2B [1]; [12],0.463 µM
same,half-life,[2]; Table 4,36 min
same,clearance,[3],26.9 mL/min/kg
Cc1nc(-c2ccc(F)c(C(F)(F)F)c2)c2c(=O)n(CC(=O)N3CCC(F)C3)ccn12 (centres unmarked) [Example 427],solubility,[4],7 µM
Cc1cc(-c2nc(C3CC3)n3ccn(CC(=O)N4CC(C)(F)C4)c(=O)c23)ccc1Cl [Example 443],solubility,[4],91 µM
CC1(F)CN(C(=O)Cn2ccn3c(C4CC4)nc(-c4cnc(Cl)c(Cl)c4)c3c2=O)C1 [Example 437],solubility,[4],7 µM
CC1(F)CN(C(=O)Cn2ccn3c(C4CC4)nc(-c4ccc(F)c(Cl)c4)c3c2=O)C1 [Example 436],solubility,[4],3 µM
same,% response recovered with Ro 25-6981 and DCKA,NMDA receptor,100%
"c1ccc(C2(N3CCCCC3)CCCCC2)cc1 [PCP, phencyclidine]",time spent exploring the novel object compared to saline control,"[5]; PCP 5 mg/kg intraperitoneal twice daily for 7 days, 14-day washout",significant reduction in time spent exploring the novel object
CC1(F)CN(C(=O)Cn2ccn3c(C4CC4)nc(-c4ccc(Cl)c(Cl)c4)c3c2=O)C1 [Example 435],solubility,[4],14 µM
O=C(Cn1ccc2scc(-c3ccc(F)c(Cl)c3)c2c1=O)N1CCCC1 [Example 3],EC50,hNR2B [1]; [12],7.01 µM
same,half-life,[2]; Table 4,47.2 min
same,clearance,[3],43.6 mL/min/kg
"CC1(F)CN(C(=O)Cn2cnc3c(c(-c4ccc(F)c(Cl)c4)cn3C3CC3)c2=O)C1 [Compound 1, 5-(3-chloro-4-fluorophenyl)-7-cyclopropyl-3-(2-(3-fluoro-3-methylazetidin-1-yl)-2-oxoethyl)-3,7-dihydro-4H-pyrrolo[2,3-d]pyrimidin-4-one]",Oocyte 2EVC NR2C PAM: Concentration Required for Current Doubling,hNR2C; [13],120 nM
same,Oocyte 2EVC NR2C PAM: Avg Max % Potentiation,hNR2C; [14],1800%
same,EC50,"hNR2C; oocytes expressing hNR2C, 10 μM glutamate and 10 μM glycine",1.2 µM
same,Oocyte 2EVC NR2D PAM: Concentration Required for Current Doubling,hNR2D [6]; [13],165 nM
same,Oocyte 2EVC NR2D PAM: Avg Max % Potentiation,hNR2D [6]; [14],1700%
same,EC50,hNR2D [7],1.89 µM
same,EC50,"hNR2B [1]; oocytes expressing hNR2B, 5 μM glutamate and 3 μM glycine, read-out: Oocyte 2EVC NR2B PAM: Avg EC50",0.446 µM
same,Oocyte 2EVC NR2B PAM: Concentration Required for Current Doubling,hNR2B [8]; 5 μM glutamate and 3 μM glycine,160 nM
same,Oocyte 2EVC NR2B PAM: Avg Max % Potentiation,hNR2B [8]; [14],478%
same,solubility,[4],29 µM
same,efflux in the MDCK efflux assay (in words),[9]; MDCK,not subject to efflux
same,membrane penetration (in words),[9]; MDCK,penetrates membranes well
same,A-B MDCK Permeability,"[9]; apical-to-basolateral, MDR1-transfected MDCK cells",32.3 10^−6 cm/sec
same,B-A MDCK Permeability,"[9]; basolateral-to-apical, MDR1-transfected MDCK cells",32.1 10^−6 cm/sec
same,Papp A→B,"MDR1; MDCK-MDR1, apical-to-basolateral",32 ×10⁻⁶ cm/s
same,Papp B→A,"MDR1; MDCK-MDR1, basolateral-to-apical",32 ×10⁻⁶ cm/s
same,stability in Human Liver Microsomes (in words),[10],good stability
same,HLM % Metabolized after 30 min,"[10]; human liver microsomes, 30 min",34.3%
same,microsomal CLint,"[10]; human liver microsomes, read-out: HLM mCLint",27.3 µL/min/mg
same,half-life,"[10]; human liver microsomes, read-out: HLM t1/2",50.8 min
same,stability in Rat Liver Microsomes (in words),[2],excellent stability
same,Rat liver microsome (RLM) stability t1/2,[2]; Table 4,>120 min
same,RLM t1/2,[2]; rat liver microsomes,>120 min
same,RLM % Metabolized after 30 min,"[2]; rat liver microsomes, 30 min",1.83%
same,microsomal CLint,"[2]; rat liver microsomes, read-out: RLM mCLint",< 5 µL/min/mg
same,half-life,[2]; Table 4,> 120 min
same,clearance,[3],7.4 mL/min/kg
same,MMN after Compound 1 plus MK-801,"[11]; 60 mg/kg BID, MK-801 0.2 mg/kg IP",prevented impairment of MMN by MK-801
same,reversal of PCP-induced deficit in novel object exploration time,[5]; 0.3 mg/kg,significantly reversed this deficit
same,reversal of PCP-induced deficit in novel object exploration time,[5]; 1.0 mg/kg,significantly reversed this deficit; also recorded: fully-reversed the PCP-induced deficit
CC1(F)CN(C(=O)Cn2ccn3ccc(-c4ccc(Cl)c(Cl)c4)c3c2=O)C1 [Example 396],EC50,hNR2B [1]; [12],0.589 µM
same,half-life,[2]; Table 4,75 min
same,clearance,[3],23.4 mL/min/kg
O=C(Cn1ccn2c(C3CC3)nc(-c3ccc(Cl)c(Cl)c3)c2c1=O)N1CCC(F)C1 (centres unmarked) [Example 433],solubility,[4],30 µM
O=C(Cn1ccc2scc(-c3cnc(Cl)c(Cl)c3)c2c1=O)N1CCC(F)C1 (centres unmarked) [Example 12],EC50,hNR2B [1]; [12],5.63 µM
same,half-life,[2]; Table 4,200 min
same,clearance,[3],19.4 mL/min/kg
CC1(F)CN(C(=O)Cn2ccn3cnc(-c4ccc(F)c(Cl)c4)c3c2=O)C1 [Example 445],solubility,[4],14 µM
O=C(Cn1cnc2[nH]cc(-c3ccc(Cl)c(C(F)(F)F)c3)c2c1=O)N1C[C@@H](F)[C@@H](F)C1 [Example 181],EC50,hNR2B [1]; [15],1.19 µM
same,% response recovered with Ro 25-6981 and DCKA,NMDA receptor,69%
same,Maximum measured potentiation (%) with Ro 25-6981 and DCKA,NMDA receptor,129%
O=C(Cn1ccc2scc(-c3ccc(F)c(Cl)c3)c2c1=O)N1CCC(F)C1 (centres unmarked) [Example 9],EC50,hNR2B [1]; [12],3.53 µM
same,half-life,[2]; Table 4,37.8 min
same,clearance,[3],35.5 mL/min/kg
CC1(F)CN(C(=O)Cn2ccc3c(c(-c4ccc(F)c(Cl)c4)cn3C3CC3)c2=O)C1 [Example 285],EC50,hNR2B [1]; [12],0.2 µM
same,half-life,[2]; Table 4,37.8 min
same,clearance,[3],22.2 mL/min/kg
same,potency in the Ro 25-6981/DCKA assay (in words),NMDA receptor; data of WO 2017/100591,excellent potency
CC1(F)CN(C(=O)Cn2ccn3cnc(-c4ccc(Cl)c(Cl)c4)c3c2=O)C1 [Example 447],solubility,[4],69 µM
C[C@]12N[C@H](Cc3ccccc31)c1ccccc12 [MK-801],MMN after vehicle plus MK-801 compared to vehicle plus saline,"[11]; MK-801 0.2 mg/kg, IP",significantly impaired MMN
CC1(F)CN(C(=O)Cn2ccn3c(C4CC4)nc(-c4ccc(F)c(C(F)(F)F)c4)c3c2=O)C1 [Example 438],solubility,[4],2 µM
CC1(F)CN(C(=O)Cn2ccn3ccc(-c4ccc(F)c(Cl)c4)c3c2=O)C1 [Example 397],EC50,hNR2B [1]; [12],1.21 µM
same,half-life,[2]; Table 4,37.3 min
same,clearance,[3],46.2 mL/min/kg
CC1(F)CN(C(=O)Cn2ccn3cnc(-c4ccc(F)c(C(F)(F)F)c4)c3c2=O)C1 [Example 446],solubility,[4],9 µM
CC1(F)CN(C(=O)Cn2ccc3scc(-c4ccc(F)c(Cl)c4)c3c2=O)C1 [Example 39],EC50,hNR2B [1]; [12],0.726 µM
same,half-life,[2]; Table 4,42 min
same,clearance,[3],27.8 mL/min/kg
Cc1nc(-c2ccc(F)c(Cl)c2)c2c(=O)n(CC(=O)N3CC(C)(F)C3)ccn12 [Example 430],Aqueous solubility,[4],43 µM
Cc1nc(-c2ccc(Cl)c(Cl)c2)c2c(=O)n(CC(=O)N3CCC(F)C3)ccn12 (centres unmarked) [Example 429],solubility,[4],26 µM
O=C(Cn1cnc2[nH]cc(-c3ccc(F)c(C(F)(F)F)c3)c2c1=O)N1CCC(F)C1 (centres unmarked) [Example 174],EC50,hNR2B [1]; [15],1.5 µM
same,% response recovered with Ro 25-6981 and DCKA,NMDA receptor,91%
same,Maximum measured potentiation (%) with Ro 25-6981 and DCKA,NMDA receptor,124%
Cc1nc(-c2ccc(F)c(Cl)c2)c2c(=O)n(CC(=O)N3CC(C)(F)C3)ccn12 [Example 426],Aqueous solubility,[4],20 µM
CC1(F)CN(C(=O)Cn2ccc3scc(-c4ccc(F)c(C(F)(F)F)c4)c3c2=O)C1 [Example 43],EC50,hNR2B [1]; [12],0.441 µM
same,half-life,[2]; Table 4,60.8 min
same,clearance,[3],29.4 mL/min/kg

# — patent US11542264B2, “Heteroaromatic NMDA receptor modulators and uses thereof” (Cadent Therapeutics, Inc., priority 2018, dated 2023)
